Data on 19 molecules can be found in patent publication US7572809B2, “Isoquinoline aminopyrazole derivatives” (Hoffmann-La Roche Inc., priority 2005, dated 2009).

The target in the first assay is T1, Aurora A kinase (Homo sapiens, UniProt O14965).
T1 sequence (O14965 1-403): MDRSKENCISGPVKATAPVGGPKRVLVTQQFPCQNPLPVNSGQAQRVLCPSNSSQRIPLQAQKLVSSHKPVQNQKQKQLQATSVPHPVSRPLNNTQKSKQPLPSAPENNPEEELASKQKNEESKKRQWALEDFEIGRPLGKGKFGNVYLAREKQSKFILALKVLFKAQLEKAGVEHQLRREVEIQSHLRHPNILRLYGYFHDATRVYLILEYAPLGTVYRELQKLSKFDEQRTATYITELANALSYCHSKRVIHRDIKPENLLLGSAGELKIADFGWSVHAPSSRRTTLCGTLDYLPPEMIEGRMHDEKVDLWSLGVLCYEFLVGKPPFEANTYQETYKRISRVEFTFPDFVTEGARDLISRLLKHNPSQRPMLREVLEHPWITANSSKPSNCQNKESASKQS
Nature of the assay: IC50 determination for inhibitors of Aurora A kinase (ELISA, GST-Histone H3 substrate). To be noted: mutant Aurora A kinase, 30 μM ATP, 40 minutes; read-out: IC50 Aurora A kinase inhibition. It is filed as biochemical. As for the experimental part: IC50 Determination for Inhibitors of Aurora A Kinase
Aurora A is a Serine Threonine Kinase Involved in Spindle Assembly and Chromosome Segregation.
The assay is a typically ELISA-type assay where substrate (GST-Histone H3) is coupled to the assay-plate and is phosphorylated by the kinase. Phosphorylation is detected by a mouse anti-Phosphopeptid mAb and an HRP-labeled anti-mouse pAb. The assay is validated for IC50-determination.
Kinase activities were measured by Enzyme-Linked Immunosorbent Assay (ELISA): Maxisorp 384-well plates (Nunc) were coated with recombinant fusion protein comprising residues 1-15 of HistoneH3 fused to the N-terminus of Glutathione-S-Transferase. Plates were then blocked with a solution of 1 mg/mL I-block (Tropix cat# T2015—highly purified form of casein) in phosphate-buffered saline. Kinase reactions were carried out in the wells of the ELISA plate by combining an appropriate amount of mutant Aurora A kinase with test compound and 30 μM ATP. The reaction buffer was […] Kinase Buffer (Cell Signaling cat # 9802) supplemented with 1 μg/mL I-block. Reactions were stopped after 40 minutes by addition of 25 mM EDTA (ethylenediaminetetraacetic acid). After washing, substrate phosphorylation was detected by addition of anti-phospho-Histone H3 (Ser 10) 6G3 mAb (Cell Signaling cat #9706) and sheep anti-mouse pAb-HRP (Amersham cat# NA931V), followed by colorimetric development with TMB (3,3′,5,5′-tetramethylbenzidine from Kirkegaard & Perry Laboratories). After readout of the absorbance, IC50 values were calculated using a non-linear curve fit (XLfit® software (ID Business Solution Ltd., Guilford, Surrey, UK)).
For orientation: ELISA stands for enzyme-linked immunosorbent assay.
`Cc1ccc(Oc2nc(Nc3cc(C)[nH]n3)cc3ccccc23)cc1` [Example 14, (5-Methyl-1H-pyrazol-3-yl)-(1-p-tolyloxy-isoquinolin-3-yl)-amine]: the IC50 turned out to be 66 nM.
Same read-out and setting: then `Cc1cc(Nc2cc3ccccc3c(Oc3ccccc3Cl)n2)n[nH]1` [Example 23, [1-(2-Chloro-phenoxy)-isoquinolin-3-yl]-(5-methyl-1H-pyrazol-3-yl)-amine], with 1660 nM; and `CC(=O)Nc1ccc(Oc2nc(Nc3cc(C)[nH]n3)cc3ccccc23)cc1` [Example 59, N-{4-[-3-(5-Methyl-1H-pyrazol-3-ylamino)-isoquinolin-1-yloxy]-phenyl}-acetamide], with 39 nM; and `CC(C)COc1nc(Nc2cc[nH]n2)cc2ccccc12` [Example 99, (1-Isobutoxy-isoquinolin-3-yl)-(1H-pyrazol-3-yl)-amine], with 1460 nM.
Same read-out and setting: for `CCOCCOCCOc1nc(Nc2cc[nH]n2)cc2ccccc12` [Example 110, {1-[2-(2-Ethoxy-ethoxy)-ethoxy]-isoquinolin-3-yl}-(1H-pyrazol-3-yl)-amine] the value was 822 nM; for `COc1cc2cc(Nc3cc(C)[nH]n3)nc(OC3CCCC3)c2cc1OC` [Example 117, (1-Cyclopentyloxy-6,7-dimethoxy-isoquinolin-3-yl)-(5-methyl-1H-pyrazol-3-yl)-amine], 21 nM; for `COc1ccc2c(-c3cnn(C)c3)nc(Nc3cc[nH]n3)cc2c1` [Example 135, [6-Methoxy-1-(1-methyl-1H-pyrazol-4-yl)-isoquinolin-3-yl]-(1H-pyrazol-3-yl)-amine], 653 nM.
With `Cc1cc(Nc2cc3ccccc3c(-c3ccncc3)n2)n[nH]1` [Example 162, (5-Methyl-1H-pyrazol-3-yl)-(1-pyridin-4-yl-isoquinolin-3-yl)-amine], the IC50 amounted to 330 nM.
On the same count and under the same terms, then `COc1ccc2c(-c3ccc4ccccc4c3)nc(Nc3cc(C)[nH]n3)cc2c1` [Example 183, (5-Methyl-1H-pyrazol-3-yl)-(1-naphthalen-2-yl-6-methoxy-isoquinolin-3-yl)-amine], with 390 nM; and `COc1cccc2c(-c3cccc(C#N)c3)nc(Nc3cc(C)[nH]n3)cc12` [Example 201, 3-[3-(5-Methyl-1H-pyrazol-3-ylamino)-5-methoxy-isoquinolin-1-yl]-benzonitrile], with 47 nM; and `c1ccc2c(-c3ccsc3)nc(Nc3cc[nH]n3)cc2c1` [Example 241, (1H-Pyrazol-3-yl)-(1-thiophen-3-yl-isoquinolin-3-yl)-amine], with 946 nM.
Still for that read-out and setting: then `c1ccc2c(-c3ccncc3)nc(Nc3cc[nH]n3)cc2c1` [Example 248, (1H-Pyrazol-3-yl)-(1-pyridin-4-yl-isoquinolin-3-yl)-amine], with 3440 nM.
Still for that read-out and setting: then `COc1ccc2c(-c3ccc4ccccc4c3)nc(Nc3cc[nH]n3)cc2c1` [Example 265, (6-Methoxy-1-naphthalen-2-yl-isoquinolin-3-yl)-(1H-pyrazol-3-yl)-amine], with 2970 nM; and `COc1ccc2c(Nc3ccc(Br)cc3)nc(Nc3cc(C)[nH]n3)cc2c1` [Example 275, N^1-(4-Bromo-phenyl)-6-methoxy-N^3-(5-methyl-1H-pyrazol-3-yl)-isoquinoline-1,3-diamine], with 43 nM.
For `COc1ccc(Nc2nc(Nc3cc[nH]n3)cc3ccccc23)cc1OC` [Example 284, N^1-(3,4-Dimethoxy-phenyl)-N^3-(1H-pyrazol-3-yl)-isoquinoline-1,3-diamine], the 50% inhibitory concentration (IC50) was found to be 259 nM.
Same read-out and setting: then `Cc1cc(Nc2cc3ccccc3c(Nc3cccnc3)n2)n[nH]1` [Example 292, N^3-(5-methyl-1H-pyrazol-3-yl)-N^1-pyridin-3-yl-isoquinoline-1,3-diamine], with 241 nM; and `Cc1cc(Nc2cc3cc(OCCN4CCOCC4)ccc3c(-c3ccccc3)n2)n[nH]1` [Example 299, (5-Methyl-1H-pyrazol-3-yl)-[6-(2-morpholin-4-yl-ethoxy)-1-phenyl-isoquinolin-3-yl]-amine], with 297 nM.
Still for that read-out and setting: then `Cc1cc(Nc2cc3ccccc3c(Sc3ccccc3)n2)n[nH]1` [Example 305, (5-Methyl-1H-pyrazol-3-yl)-(1-phenylsulfanyl-isoquinolin-3-yl)-amine], with 497 nM; and `COc1ccc2c(Sc3cccc(F)c3)nc(Nc3cc(C)[nH]n3)cc2c1` [Example 311, [1-(3-Fluoro-phenylsulfanyl)-6-methoxy-isoquinolin-3-yl]-(5-methyl-1H-pyrazol-3-yl)-amine], with 210 nM.

The test system of another assay is HCT 116 cells. Put plainly: Viability assay in HCT 116 cells (CellTiter-Glo). In kind it is cell-based. To be noted: 120 h; HCT 116 human colon carcinoma cells, 5 days incubation. As for the experimental part: Viability Assay in HCT 116 Cells
A viability assay was performed using the CellTiter-Glo® Luminescent Cell Viability Assay (see Promega Corporation's Technical Bulletin No. 288, pp. 1-11 [revised February, 2004] which is hereby incorporated by reference in its entirety). This assay is a homogeneous method of determining the number of viable cells in culture based on quantitation of the ATP present, an indicator of metabolically active cells. The assay is designed for use with multiwell formats, making it ideal for automated high-throughput screening (HTS), cell proliferation and cytotoxicity assays. The homogeneous assay procedure involves adding a single reagent (containing luciferase, luciferan substrate, and buffer) directly to cells cultured in serum-supplemented medium. Cell washing, removal of medium and multiple pipetting steps are not required. The system detects as few as 15 cells/well in a 384-well format in 10 minutes after adding reagent and mixing.
The homogeneous “add-mix-measure” format results in cell lysis and generation of a luminescent signal proportional to the amount of ATP present. The amount of ATP is directly proportional to the number of cells present in culture. The above-referenced assay generates a “glow-type” luminescent signal, produced by the luciferase reaction, which has a half-life generally greater than five hours, depending on cell type and medium used. The extended half-life eliminates the need to use reagent injectors and provides flexibility for continuous or batch mode processing of multiple plates. The unique homogeneous format avoids errors that may be introduced by other ATP measurement methods that require multiple steps.
HCT 116 cells (human colon carcinoma, ATCC-No. CCl-247) were cultivated in RPMI 1640 medium with GlutaMAX™ I (cell culture media that contains L-Alanyl-L-Glutamine [a stabilized form/source of L-Glutamine] from Invitrogen, Cat-No. 61870-010), 5% Fetal Calf Serum (FCS, Sigma Cat-No. F4135 (FBS)); 100 Units/ml penicillin/100 μg/ml streptomycin (=Pen/Strep from Invitrogen Cat. No. 15140). For the assay the cells were seeded in 384 well plates, 1000 cells per well, in the same medium. The next day the test compounds were added in various concentrations ranging from 30 μM to 0.0015 μM (10 concentrations, 1:3 diluted). After 5 days the viability assay was performed according to the instructions of the manufacturer. In brief: the cell-plate was equilibrated to room temperature for approximately 30 minutes and then the CellTiter-Glo™ reagent (which contains luciferase, luciferan substrate, and buffer) was added. The contents were carefully mixed for 15 minutes to induce cell lysis. After 45 minutes the luminescent signal was measured in Victor 2, (scanning multiwell spectrophotometer, Wallac).
1st. Day: • Medium: RPMI 1640 with GlutaMAX™ I (Invitrogen, Cat-No. 61870), 5% FCS (Sigma Cat.-No. F4135), Pen/Strep (Invitrogen, Cat No. 15140). • HCT116 (ATCC-No. CCl-247): 1000 cells in 60 μl per well of 384 well plate (Greiner 781098, μClear-plate white) • After seeding incubate plates 24 h at 37° C., 5% CO2 2nd. Day: Induction (Treatment with Compounds, 10 Concentrations):
In order to achieve a final concentration of 30 μM as highest concentration 3.5 μl of 10 mM compound stock solution were added directly to 163 μl media. Then step e) of the dilution procedure described below, was followed.
In order to achieve the second highest to the lowest concentrations, a serial dilution with dilution steps of 1:3 was followed according to the procedure (a-e) as described here below: a) for the second highest concentration add 10 μl of 10 mM stock solution of compound to 20 μl dimethylsulfoxide (DMSO) b) dilute 8×1:3 (always 10 μl to 20 μl DMSO) in this DMSO dilution row (results in 9 wells with concentrations from 3333.3 μM to 0.51 μM) c) dilute each concentration 1:47.6 (3.5 μl compound dilution to 163 μl media) […]
On the technique in general: ATP-based viability assays read luminescence as a measure of living cells.
`COc1cc2cc(Nc3cc(C)[nH]n3)nc(OC3CCCC3)c2cc1OC` [Example 117, (1-Cyclopentyloxy-6,7-dimethoxy-isoquinolin-3-yl)-(5-methyl-1H-pyrazol-3-yl)-amine] showed an IC50 of 666 nM.
With `COc1ccc2c(-c3ccc4ccccc4c3)nc(Nc3cc(C)[nH]n3)cc2c1` [Example 183, (5-Methyl-1H-pyrazol-3-yl)-(1-naphthalen-2-yl-6-methoxy-isoquinolin-3-yl)-amine], half-maximal inhibition (IC50) required 4010 nM.
The same measure, in the same setting: for `COc1ccc2c(Nc3ccc(Br)cc3)nc(Nc3cc(C)[nH]n3)cc2c1` [Example 275, N^1-(4-Bromo-phenyl)-6-methoxy-N^3-(5-methyl-1H-pyrazol-3-yl)-isoquinoline-1,3-diamine] the value was 995 nM.

The IC50 is the concentration needed to halve the response being measured.
